Columns and labels:
CGA-snLuc cells = conditions: MEAlt assays; low levels of adulterant
Description: (§1) To perform this assay, cells from the cell lines described in Example 1 were thawed using standard procedures and plated on Vitronectin coated wells of a 96-well plate in Essential 8 Flex medium with Revitacell supplement. Plating density for SOX2-snLuc cells was approximately 20,000 cells per well and for the CGA-snLuc cells, approximately 15,000 cells per well. Empty wells were filled with PBS to reduce variation in Nanoluciferase concentration related to evaporation. Cells were allowed to recover for 7-18 hours prior to exposure to test media.
For CGA-snLuc cells the activation of the reporter required medium that supported trophectoderm/placental differentiation, such as BAP medium. […] DAF-BAP contained DMEM with 25 mM HEPES and 4.5 g/L Glucose and without L-Glutamine, 100 ng/ml BMP-4, 1 μM A83-01, 0.1 μM PD173074, 5 mg/mL of AlbumiNZ Bovine Albumin Low Free Fatty Acid, and 40 μM forskolin. Media was pre-warmed prior to forskolin addition to prevent precipitation.
Following recovery from thawing, media was exchanged to the respective test medium for each cell line. […] Secreted Nanoluciferase was detected by removing 10% of the culture media and mixing in a white assay plate with substrate and buffer using the Promega Nano-Glo Luciferase Assay kit. Luminescence was measured with a BioTek Cytation 1 imaging reader. […]

SOX2-snLuc cells = conditions: MEAlt assays; low levels of adulterant
Description: as §1
For SOX2-snLuc cells the test media was Essential 8 Flex.
Following recovery from thawing, media was exchanged to the respective test medium for each cell line. […] In the case of SOX2-snLuc cells, a baseline read of Luciferase expression was optionally performed prior to media exchange to assess variations in plating density or post-thaw recovery. Exposure to test medium was for 24-96 hours for SOX2-snLuc cells and 48-96 hours for CGA-snLuc cells. Secreted Nanoluciferase was detected by removing 10% of the culture media and mixing in a white assay plate with substrate and buffer using the Promega Nano-Glo Luciferase Assay kit. Luminescence was measured with a BioTek Cytation 1 imaging reader.
The assay was also tested in the context of detecting an adulterant, ethylene glycol (EG), that is known to affect viability of mouse embryos.

| Compound | detection of adulterant by the MEAlt assay (CGA-snLuc cells) | detection of adulterant by the MEAlt assay (SOX2-snLuc cells) |
| --- | --- | --- |
| triton-x-100 | successfully detect low levels | successfully detect low levels |
| C=O [formaldehyde] | successfully detect low levels | successfully detect low levels |

Source: patent US20250250646A1, “DUAL GENETIC REPORTERS IN HUMAN PLURIPOTENT CELLS FOR USE AS ALTERNATIVE TO MOUSE EMBRYO ASSAY” (Nexpring US Opco Inc., priority 2022, published 2025)
